Values after ≈ are worked out from the molar mass of the structure shown. Like-named read-outs stand apart in the source and are kept apart here.
How the values were obtained:
[1] = Dissolution test in water, Dissolution Tester, 25° C.
Method: 7.5 Grams of piroxicam/β-cyclodextrin were poured into 150 ml of water at 25° C. under stirring. At predetermined time intervals, samples of 5 ml of suspension were collected and filtered through 0.2μ. […] were diluted 1 to 500 with 0.1 N NaOH in methanol immediately after the filtration. The whole was again filtered through paper.
The amount of piroxicam in the solution was spectrophotometrically determined at 358 nm against a solution of 0.1 N NaOH in methanol.

[2] = tested on: carrageenin induced oedema; test: Carrageenin induced oedema test in rats (antiinflammatory activity); format: in vivo, male Crl:CD(SD) rats; conditions: oral, rat
Method: The antiinflammatory activity was determined by means of the carrageenin induced oedema test, according to the methodology reported by C. A. Winter et al in Proc. Soc. Exptl. […] As the test animals, male Crl:CD(SD) rats, weighing 150-170 g, were employed. The animals were housed under standard conditions and fastened for 18 hours before the beginning of the experiment. Water was available ad libitum.
The obtained results were expressed both as ED50 values, determined in correspondence of the activity peak on the regression line log. of the dosage-% inhibition of the oedema, and as ED30 values, calculated on the regression lines log. of the dosage-% inhibition of the oedema over the controls, determined as the mean value of AUC (area under Curve representing the development of the paw volume in the time).
In addition, it was determined the kinetic of the activity of the two formulations under investigation, by calculating the ED30 values at 2, 3, 4 and 6 hours since the carrageenin injection.

[3] = Gastrolesive action in rats and therapeutic index UD0/ED30; conditions: in vivo, rat
Method: The gastrolesive action was tested on rats fastened for 18 hours, through macroscopical examination of the gastric mucosa, 5 hours after the administration of the substances under investigation. For each treatment, the regression lines log. of the dosage-mm of ulceration (single values for each animal) were determined. These lines allowed to calculate, for each compound, the UD0 values i.e., the maximum dosages at which no lesions are observed.
Finally, it was also determined the therapeutic index of the new compound piroxicam/β-cyclodextrin, in comparison with piroxicam. Said index was expressed as the ratio UD0 /ED30 wherein UD0 and ED30 are as above defined.

[4] = Plasma kinetics of piroxicam in the rabbit after oral administration; format: in vivo, male New Zealand White rabbits
Method: For these investigations, male New Zealand White rabbits, weighing 2.5-3.0 kg were employed. The animals were kept at constant temperature and fastened for the 17 hours preceeding the experiments. Water was given ad libitum. […] The determination of the plasma levels of the active principle, at the different times since the administration, was carried out by High Pressure Liquid Chromatography (HPLC).

[5] = Plasma kinetics of piroxicam in the dog after oral administration; design: species or system Beagle dogs; conditions: in vivo, 10 mg/kg of active ingredient
Method: The dogs were kept at constant temperature and fastened at least for 17 hours before the beginning of the experiment. Water was available ad libitum.
The two substances to be investigated were orally administered at a dosage corresponding to 10 mg/kg of active ingredient, according to a crossover scheme. The determination of the plasma concentrations of the active ingredient, at a different time intervals since the administration, was carried out by High Pressure Liquid Chromatography (HPLC).

[6] = tested on: phenylquinone induced writhing; test: Phenylquinone induced writhing test (kinetic of the analgesic activity); format: in vivo, female NMRI mice; conditions: mouse, oral, 0.5 mg/kg of active substance
Method: The employed experimental model is a slight modification of that described by Siegmund, J. Pharm. Exptl. Ther., 119, 184, 1957.
Female NMRI mice, housed under standard conditions, fastened for 18 hours, were employed as the test animals. Water was available ad libitum.
The compounds under study were orally administered by oesophageal gavage, suspended in an aqueous solution containing 0.5% of carboxymethylcellulose, at a concentration corresponding to 0.5 mg/kg of active substance (piroxicam).

[7] = background; cited from earlier work
gastrointestinal mucosa = conditions: background; cited from earlier work
[8] = plasma, 10 mg/kg of active ingredient, mean

CN1C(C(=O)Nc2ccccn2)=C(O)c2ccccc2S1(=O)=O [Piroxicam, 4-hydroxy-2-methyl-N-2-pyridyl-2H-1,2-benzothiazine-3-carboxamide-1,1-dioxide]
solubility at 0.5 h [1]: 111 µg/mL (≈ 335 µM)
ED30 ([2]; Rat2, 2 h since carrageenin injection, read-out: ED30 at 2 h): 0.6 mg/kg
ED30 ([2]; 3 h since carrageenin injection, read-out: ED30 at 3 h): 1.6 mg/kg
ED30 ([2]; 4 h since carrageenin injection, read-out: ED30 at 4 h): 3.1 mg/kg
ED30 ([2]; 6 h since carrageenin injection, read-out: ED30 at 6 h): 9.7 mg/kg
ED30 ([2]; AUC of paw volume in time, dosage as piroxicam, read-out: Activity on AUC ED30): 2.5 mg/kg
ED50 ([2]; at the activity peak, dosage as piroxicam): 2.3 mg/kg
NOAEL at 5 h ([3]; 5 hours after administration, dosage as piroxicam, read-out: Gastrolesive activity UD0 (maximum dosage at which no lesions are observed)): 1.1 mg/kg
selectivity ratio ([3]; piroxicam = 1, read-out: Relative therapeutic index): 1
selectivity ratio ([3]; read-out: Absolute therapeutic index (UD0/ED30)): 0.44
bioavailability [4]: almost complete bioavailability
Tmax ([4]; plasma, 10 mg/kg of active ingredient): 2.3 h
concentration at 0.5 h ([4]; plasma, 10 mg/kg of active ingredient, 0.50 h, mean): 4300 ng/mL
concentration at 1 h ([4]; plasma, 10 mg/kg of active ingredient, 1 h, mean): 7400 ng/mL
concentration at 2 h ([4]; plasma, 10 mg/kg of active ingredient, 2 h, mean): 10900 ng/mL
concentration at 4 h ([4]; plasma, 10 mg/kg of active ingredient, 4 h, mean): 10100 ng/mL
concentration at 8 h ([4]; plasma, 10 mg/kg of active ingredient, 8 h, mean): 6500 ng/mL
concentration at 24 h ([4]; plasma, 10 mg/kg of active ingredient, 24 h, mean): 300 ng/mL
AUC(0-t) at 2 h [4, 8]: 13200 ng·h/mL
AUC(0-t) at 24 h [4, 8]: 121000 ng·h/mL
Cmax [4, 8]: 11700 ng/mL
Tmax [5]: 1.8 h
concentration at 0.25 h ([5]; 0.25 h, mean): 1000 ng/mL
concentration at 0.5 h ([5]; 0.50 h, mean): 2800 ng/mL
concentration at 1 h ([5]; 1 h, mean): 12700 ng/mL
concentration at 2 h ([5]; 2 h, mean): 19400 ng/mL
concentration at 4 h ([5]; 4 h, mean): 18900 ng/mL
concentration at 8 h ([5]; 8 h, mean): 14200 ng/mL
concentration at 24 h ([5]; 24 h, mean): 11500 ng/mL
concentration at 48 h ([5]; 48 h, mean): 9200 ng/mL
concentration at 72 h ([5]; 72 h, mean): 3000 ng/mL
AUC(0-t) at 2 h ([5]; mean): 20400 ng·h/mL
AUC(0-t) at 72 h ([5]; mean): 724000 ng·h/mL
Cmax ([5]; mean): 20000 ng/mL
time of the activity peak (analgesic) [6]: 20 min
percentage of the maximum evidenced inhibition (writhing) at 5 minutes ([6]; 5 minutes after the administration): 78%
solubility in water [7]: practically insoluble in water
effects on the gastrointestinal mucosa (gastrointestinal mucosa): responsible of lesive effects on the gastrointestinal mucosa
